# US6534676B2, “Method to treat chronic heart failure and/or elevated cholesterol levels using 3,5-diiodothyropropionic acid and method to prepare same” (The Arizona Board of Regents on Behalf of the University of …, priority 2001, dated 2003)
# Key:
# [1] = Dose-ranging study of DITPA in normal volunteers: thyroid hormone measurements; assay type: in vivo, human; conditions: for Thyrotropin: baseline 3.53 ± 1.00; for Thyrotropin / Free T4 / Total T4 / rT3: mean ± SEM; for Free T4: baseline 1.04 ± .04; for Total T4: baseline 8.73 ± .85; for rT3: baseline 23.23 ± 1.71
# Method: A dose-ranging study was performed with seven (7) normal volunteers. Study participants comprised men between the ages of 18 and 65 years of age. Before participating in the study, a complete physical examination, electrocardiogram, and echocardiogram were obtained. […] On day 1, these normal volunteers were started on 1.875 mg/kg in two divided doses per day. This treatment regimen was continued for two weeks. At the end of the second week, the initial laboratory studies were repeated. The dose was then doubled to 3.75 mg/kg and the volunteers were treated for two additional weeks. At the end of this time physical examination and all laboratory variables again were measured. Volunteer data were analyzed using Student's paired t-test. Baseline data in DITPA and placebo groups were compared by Student's unpaired t-test. Comparison of placebo and drug treated groups was made by repeated measures ANOVA (SPSS Version 9.5, SPSS Chicago, 11). If P values for drug-time interactions were significant a priori contrasts were performed of the drug-time interaction for two weeks versus baseline. When data were available only at baseline and four week, comparisons were made by difference scores. Baseline values for each participant were subtracted from values after four weeks of treatment and the differences between DITPA and placebo treatments then were compared. […] Table II summarizes thyroid hormone measurements after two and four weeks of treatment with DITPA in normal volunteers.
# [2] = system: single myocytes from infarcted rabbit hearts; conditions: cited from earlier work
# [3] = Heart failure patients: echocardiography; assay type: in vivo, human; conditions: for Shortening velocity: baseline 0.69 ± 0.15; for Ratio of early to late filling: baseline 1.10 ± 0.21; for LV diastolic dimension: baseline 6.84 ± 0.33; for Fractional shortening: baseline 17.0 ± 3.5; for Isovolumic relaxation time: baseline 92.2 ± 9.5; for LV mass: baseline 495.8 ± 45.9; for LV end-systolic dimension: baseline 5.72 ± 0.41
# Method: (§1) DITPA cross-reacted with antibodies for detection of T3, which consequently was not measured. Renal and hepatic function tests also were performed. Patients were randomly assigned in double-blind fashion to receive either DITPA at a dosage of 1.875 mg/kg daily or placebo in two or three divided doses. For the first four days of drug administration patients were monitored on a telemetry unit. Thereafter, weekly electrocardiograms were performed and patients were examined for changes in thyroid or cardiac status or evidence of drug toxicity.
# (§2) At the end of two weeks an echocardiogram was obtained. If there was no clinical evidence of progression of heart failure or development of an arrhythmia the dose of DITPA was increased to 3.75 mg/kg daily. After an additional two weeks of treatment with the higher dosage of the drug patients were readmitted to the hospital and the tests performed in the initial evaluation were repeated.
# (§3) M-mode, two-dimensional, and Doppler echocardiograms were obtained with an ultrasonographic system equipped with a […] transducer (GE VingMed, Milwaukee, Wis.) according to the recommendation of the American Society of Echocardiography. Ejection fraction was measured by gated radionuclide myocardial imaging.
# [4] = Double-blind DITPA versus placebo study in patients with congestive heart failure: clinical effects and tolerability; assay type: in vivo, human; conditions: for Weight: baseline 98.7 ± 6.6, mean ± SE; for NY Heart Association functional class: baseline 2.5 ± 0.2; for Diastolic Blood Pressure: baseline 75.8 ± 4.2; for Heart Rate: baseline 81.3 ± 4.4; for Systolic Blood Pressure: baseline 122.8 ± 4.9
# Method: In clinical trials discussed below wherein DITPA was orally administered to volunteers and patients, the DITPA was mixed under the supervision of a registered pharmacist with lactose and packed into gelatin capsules containing 50 mg of the active ingredient. Identical capsules were packed with lactose to serve as placebo medication.
# Patients were eligible for enrollment in these clinical studies if they had symptoms of heart failure and an ejection fraction of less than 35%. Patients were required to be in sinus rhythm. Treatment with digitalis, angiotensin converting enzyme inhibitors, and diuretics were allowed, but β-adrenergic blocking agents were not permitted.
# Three patients in the placebo group and one patient receiving DITPA were taking an HMG-CoA reductase inhibitor. Patients were excluded from the study if they were receiving amiodarone, had unstable angina, myocardial infarction within 6 months, significant aortic stenosis, hepatic or renal insufficiency, anemia (hematocrit<30%), pre-existent thyroid disease, sensitivity to iodine, active cancer or any other life-threatening disease.
# (§4) All patients were hospitalized before initiating treatment and a right heart catheterization, radionuclide ejection fraction and echocardiogram were performed. Serum samples were drawn for measurement of thyrotropin, total T4, free T4, and reverse T3.
# as §1, §2, §3
# Twenty-two patients underwent the initial right heart catheterization and were randomized to receive the subject drug or placebo. Nineteen patients completed the study (mean age 61.6, range 47 to 76). Patient functional classes, according to the New York Heart Association classification were II (n=12), III (n=7). One patient had dilated cardiomyopathy. The remaining patients had coronary artery disease, which was considered to be the most likely etiology of congestive heart failure. There was one death in a patient receiving placebo. One patient in the DITPA group was withdrawn because of abdominal pain and subsequently found to have cholelithiasis.
# [5] = Cardiac performance, chronotropic and metabolic effect compared with L-thyroxine (background); assay type: in vivo
# Source text: Because of potential adverse effects of thyroid hormone, such as metabolic stimulation and tachycardia, what is required are thyroid hormone analogs with fewer undesirable side effects. […] Like thyroid hormone, DITPA binds to nuclear T3 receptors of the c-erbA proto-oncogene family.
# [6] = Heart failure patients: right heart catheterization hemodynamics; assay type: in vivo, human
# Method: as §4, §1, §2
# Right heart catheterization was performed after the patient had been fasted overnight; no premedication was given. Pulmonary artery, pulmonary capillary wedge and right heart pressures were measured with a 7 Fr Swan-Ganz catheter introduced into the right femoral vein. Blood pressures were recorded with an automated arm cuff system. After an initial stabilization period of 20 to 30 minutes, the resting hemodynamic measurements were obtained. Thermodilution cardiac output measurements were averaged from five recordings after discarding the highest and lowest values. All blood tests were performed in the Clinical Pathology Laboratory at the Southern Arizona Veterans Administration Health Care System.
# [7] = normal volunteers, after 2 weeks (1.875 mg/kg/day)
# [8] = normal volunteers, after 4 weeks (3.75 mg/kg/day)
# [9] = echocardiography, after 2 weeks (1.875 mg/kg daily)
# [10] = echocardiography, after 4 weeks (3.75 mg/kg daily)
# [11] = heart failure patients, after 2 weeks (1.875 mg/kg daily)
# [12] = heart failure patients, after 4 weeks (3.75 mg/kg daily)
structure (smiles),measurement,setting,value
"O=C(O)CCc1cc(I)c(Oc2ccc(O)cc2)c(I)c1 [DITPA, 3,5-Diiodothyropropionic acid]",Thyrotropin,"[1]; normal volunteers n=7, after 2 weeks (1.875 mg/kg/day)",0.69 ± .38 mu/L
same,Thyrotropin,"[1]; normal volunteers n=7, after 4 weeks (3.75 mg/kg/day)",0.44 ± .29 mu/L
same,Free T4,[1]; [7],0.95 ± .07 ng/dL
same,Total T4,[1]; [7],5.76 ± .39 µg/dL
same,rT3,[1]; [7],47.41 ± 7.11 ng/dL
same,Free T4,[1]; [8],1.05 ± .06 ng/dL
same,Total T4,[1]; [8],5.89 ± .44 µg/dL
same,rT3,[1]; [8],69.56 ± 9.93 ng/dL
same,average values for thyrotropin,"[1]; normal volunteers, after two additional weeks at 3.75 mg/kg, normal range 0.48 to 4.0 μU/ml",0.44±0.29 μU/ml
same,calcium transport in the sarcoplasmic reticulum (SR),[2]; post-infarction heart failure in rabbits,enhances calcium transport in the sarcoplasmic reticulum (SR)
same,contraction-frequency relationship,[2]; single myocytes from infarcted rabbit hearts,prevents the flattened contraction-frequency relationship
same,Shortening velocity,[3]; [9],0.55 ± 0.09 circ/sec
same,Ratio of early to late filling,[3]; [9],0.89 ± 0.17
same,LV diastolic dimension,[3]; [9],6.83 ± 0.35 cm
same,Fractional shortening,[3]; [9],13.8 ± 2.4%
same,Isovolumic relaxation time,"[3]; echocardiography, after 2 weeks (1.875 mg/kg daily), contrast baseline to 2 weeks P = 0.051",87.5 ± 9.2^++ msec
same,LV mass,[3]; [9],474.2 ± 38.2 g
same,Shortening velocity,[3]; [10],0.57 ± 0.10 circ/sec
same,Ratio of early to late filling,[3]; [10],1.16 ± 0.26
same,LV end-systolic dimension,[3]; [10],6.01 ± 0.33 cm
same,LV diastolic dimension,[3]; [10],6.96 ± 0.30 cm
same,Fractional shortening,[3]; [10],13.8 ± 2.5%
same,Isovolumic relaxation time,"[3]; echocardiography, after 4 weeks (3.75 mg/kg daily), ANOVA P 0.045",84.4 ± 8.5 ms
same,LV mass,[3]; [10],477.9 ± 40.5 g
same,LV end-systolic dimension,"[3]; heart failure patients n=9, echocardiography, after 2 weeks (1.875 mg/kg daily)",5.87 ± 0.30 cm
same,arrhythmias,[4]; heart failure patients,No arrhythmias were noted
same,clinical manifestations of hyperthyroidism,[4]; heart failure patients,not observed
same,frequency or severity of anginal attacks,[4]; heart failure patients,no increase in frequency or severity of anginal attacks
same,Weight,"[4]; heart failure patients n=9, after 4 weeks (last 2 weeks 3.75 mg/kg daily)",94.7 ± 18.8 kg
same,Weight,"[4]; heart failure patients n=9, oral, after 2 weeks (1.875 mg/kg daily)",98.2 ± 19.3 kg
same,decrease in body weight,"[4]; heart failure patients, DITPA group, after 4 weeks, P=0.059 vs placebo",4 kg
same,NY Heart Association functional class,[4]; [11],2.4 ± 0.2
same,Diastolic Blood Pressure,[4]; [11],65.7 ± 3.3 mm Hg
same,Heart Rate,[4]; [11],83.4 ± 6.5 beats/min
same,Systolic Blood Pressure,[4]; [11],116.2 ± 7.4 mm Hg
same,NY Heart Association functional class,[4]; [12],2.5 ± 0.2
same,Radionuclide Ejection Fraction,"[4]; heart failure patients, after 4 weeks (3.75 mg/kg daily), baseline 18.1 ± 2.4",20.6 ± 3.2%
same,Diastolic Blood Pressure,[4]; [12],66.4 ± 3.6 mm Hg
same,Heart Rate,[4]; [12],82.2 ± 4.7 beats/min
same,Systolic Blood Pressure,[4]; [12],119.1 ± 6.1 mm Hg
same,tolerability,[4]; patients with ischemic heart disease / heart failure,well tolerated
same,chronotropic effect relative to L-thyroxine,[5]; at increased cardiac performance,approximately half of the chronotropic effect
same,metabolic stimulation relative to L-thyroxine,[5]; in vivo,less metabolic stimulation than L-thyroxine
same,Cardiac Index,"[6]; after 4 weeks, baseline 2.10 ± 0.14, P 0.04 vs placebo",2.54 ± 0.16 liters/min/m^2
same,Mean Arterial Pressure,"[6]; after 4 weeks, baseline 96.2 ± 6.7",92.0 ± 5.7 mm Hg
same,Systemic Vascular Resistance,"[6]; after 4 weeks, baseline 3,465 ± 319, P 0.02 vs placebo","2,644 ± 257 dynes x sec x cm^−5"
same,Heart Rate,"[6]; heart failure patients n=9, right heart catheterization, after 4 weeks of treatment, baseline 84.8 ± 4.9",89.6 ± 5.3
same,Right atrial pressure,"[6]; right heart catheterization, after 4 weeks, baseline 8.1 ± 1.7",10.5 ± 1.8 mm Hg
same,"Pulmonary artery pressures, Wedge","[6]; right heart catheterization, after 4 weeks, baseline 24.0 ± 3.9",21.8 ± 2.75 mm Hg
same,"Pulmonary artery pressures, Diastolic","[6]; right heart catheterization, after 4 weeks, baseline 25.1 ± 4.1",25.4 ± 2.5 mm Hg
same,"Pulmonary artery pressures, Mean","[6]; right heart catheterization, after 4 weeks, baseline 30.1 ± 5.0",33.4 ± 3.2 mm Hg
same,"Pulmonary artery pressures, Systolic","[6]; right heart catheterization, after 4 weeks, baseline 45.0 ± 6.2",49.1 ± 5.3 mm Hg
same,Cardiac Output,"[6]; thermodilution, after 4 weeks, baseline 4.50 ± 0.36, P 0.07 vs placebo",5.30 ± 0.36 L/min
